In patent US8329222B1, “Magnetic nanomedicine for tumor suppression and therapy” (priority 2011, dated 2012):

Key:
[1] = test system: human bladder tumor cells (MGH-U1); experiment: XTT growth suppression test on bladder tumor cells; format: cell-based; conditions: cultivated with MGH-U1 for 27 hours, no magnetic field, read-out: cell growth inhibit efficiency
Procedure: Cell Cultivation: Place 150 μL of a mixture liquid containing 10,000 human bladder tumor cells (MGH-U1) into each well of 96-well culture plate. Place the culture plate in a humidified incubator in a temperature of 37° C. and with 5% CO2 to enable adherent growth of the cells.
Agent Addition: 24 hours later, mix separately MNPs (concentration 600 μg/mL) EPI (concentrations 2, 5, 10 μM), and EPI/SPAnH/MNPs magnetic nanomedicine (concentrations 2, 5, 10 μM) with a RPMI1640 medium to form mixed solutions. Add respectively 50 μL of the mixed solutions to well, and then place the culture plate in a humidified incubator having 5% CO2 for 2, 4, 6, 10, and 27 hours.
Cell Counting: Remove RPMI1640 medium in the well and add 120 μL of an XTT reaction liquid (2,3-Bis(2-methoxy-4-nitro-5-sulfophenyl)-2H-tetrazolium-5-carboxanilide inner salt) to the wells. Use an ELISA reader (BIO-TEK, model EL 808) to measure the OD (Optical Density) values of each cell at a wavelength of 490 nm to determine the toxicity of SPAnH/MNPs magnetic nanocomposite and the cell-killing rate of EPI/SPAnH/MNPs magnetic nanomedicines to the bladder tumor cells.
Cell Cultivation: Place 150 μL of a mixture liquid containing 10,000 human bladder tumor cells (MGH-U1) into each well of 96-well culture plate. […]

[2] = test system: bladder tumor cells MGH-U1; experiment: Fluorescence microscopy of cell entry after 4 hours; format: cell-based, human; conditions: reacted 4 hours, fluorescent microscope photos
Procedure: Add 2 mL of a mixture liquid containing 20,000 bladder tumor cells MGH-U1 to a 3.5 cm diameter cultivation plate. Place the cultivation plate in a humidified incubator having 5% CO2 in a temperature of 37° C. to enable adherent growth of the cells. Twenty-four hours later, add to the cultivation plate, 100 μL of RPMI1640 medium containing EPI, EPI/SPAnH/MNPs magnetic nanomedicine, DOX, and DOX/SPAnH/MNPs magnetic nanomedicine to react for 4 hours, then flush it with 1 mL of Hanks' balance slat solution (HBSS).

SMILES	inhibition at 10 µM [1]	entry into bladder tumor cell MGH-U1 [2]
COc1cccc2c1C(=O)c1c(O)c3c(c(O)c1C2=O)C[C@@](O)(C(=O)CO)C[C@@H]3O[C@H]1C[C@H](N)[C@H](O)[C@H](C)O1 [DOX, Doxorubicin]	66.2%	do enter into the bladder tumor cell MGH-U1
COc1cccc2c1C(=O)c1c(O)c3c(c(O)c1C2=O)C[C@@](O)(C(=O)CO)C[C@@H]3O[C@H]1C[C@H](N)[C@@H](O)[C@H](C)O1 [EPI, Epirubicin]	64.3%	do enter into the bladder tumor cell MGH-U1
